Assay results published in patent US20210078988A1, “MODULATORS OF INDOLEAMINE 2,3-DIOXYGENASE” (GLAXOSMITHKLINE INTELLECTUAL PROPERTY DEVELOPMENT LIMITED, priority 2017, published 2021).

Molecular target: T1, indoleamine 2, 3-dioxygenase (IDO1) (Homo sapiens, UniProt P14902)
T1 construct: human peripheral blood mononuclear cells (PBMC) (PB003F; host or cells: human PBMC stimulated with IFN-gamma and LPS
Test: PBMC IDO1 assay (kynurenine detection via mass spectrometry)
Format: cell-based
Conditions: human PBMC stimulated with IFN-γ and LPS, 2 days, kynurenine by mass spectrometry; read-out: IDO1 PBMC pIC50 (converted)
Description: Compounds of the present invention were tested via high-throughput cellular assays utilizing detection of kynurenine via mass spectrometry and cytotoxicity as end-points. For the mass spectrometry and cytotoxicity assays, human peripheral blood mononuclear cells (PBMC) (PB003F; AIICells®, Alameda, Calif.) were stimulated with human interferon-γ (IFN-γ) (Sigma-Aldrich Corporation, St. Louis, Mo.) and lipopolysaccharide from Salmonella minnesota (LPS) (Invivogen, San Diego, Calif.) to induce the expression of indoleamine 2, 3-dioxygenase (IDO1). Compounds with IDO1 inhibitory properties decreased the amount of kynurenine produced by the cells via the tryptophan catabolic pathway. Cellular toxicity due to the effect of compound treatment was measured using CellTiter-Glo® reagent (CTG) (Promega Corporation, Madison, Wis.), which is based on luminescent detection of ATP, an indicator of metabolically active cells.
In preparation for the assays, test compounds were serially diluted 3-fold in DMSO from a typical top concentration of 5 mM and plated at 0.5 μL in 384-well, polystyrene, clear bottom, tissue culture treated plates with lids (Greiner Bio-One, Kremsmunster, Austria) to generate 11-point dose response curves. Low control wells (0% kynurenine or 100% cytotoxicity) contained either 0.5 μL of DMSO in the presence of unstimulated (-IFN-γ/-LPS) PBMCs for the mass spectrometry assay or 0.5 μL of DMSO in the absence of cells for the cytotoxicity assay, and high control wells (100% kynurenine or 0% cytotoxicity) contained 0.5 μL of DMSO in the presence of stimulated (+IFN-γ/+LPS) PBMCs for both the mass spectrometry and cytotoxicity assays.
Frozen stocks of PBMCs were washed and recovered in RPMI 1640 medium (Thermo Fisher Scientific, Inc., Waltham, Mass.) supplemented with 10% v/v heat-inactivated fetal bovine serum (FBS) (Thermo Fisher Scientific, Inc., Waltham, Mass.), and 1× penicillin-streptomycin antibiotic solution (Thermo Fisher Scientific, Inc., Waltham, Mass.). The cells were diluted to 1,000,000 cells/mL in the supplemented RPMI 1640 medium. 50 μL of either the cell suspension, for the mass spectrometry assay, or medium alone, for the cytotoxicity assay, were added to the low control wells, on the previously prepared 384-well compound plates, resulting in 50,000 cells/well or 0 cells/well respectively. IFN-γ and LPS were added to the remaining cell suspension at final concentrations of 100 ng/ml and 50 ng/ml respectively, and 50 μL of the stimulated cells were added to all remaining wells on the 384-well compound plates. The plates, with lids, were then placed in a 37° C., 5% CO2 humidified incubator for 2 days.
Following incubation, the 384-well plates were removed from the incubator and allowed to equilibrate to room temperature for 30 minutes. For the cytotoxicity assay, CellTiter-Glo® was prepared according to the manufacturer's instructions, and 40 μL were added to each plate well. After a twenty minute incubation at room temperature, luminescence was read on an EnVision® Multilabel Reader (PerkinElmer Inc., Waltham, Mass.). For the mass spectrometry assay, 10 μL of supernatant from each well of the compound-treated plates were added to 40 μL of acetonitrile, containing 10 μM of an internal standard for normalization, in 384-well, polypropylene, V-bottom plates (Greiner Bio-One, Kremsmunster, Austria) to extract the organic analytes. Following centrifugation at 2000 rpm for 10 minutes, 10 μL from each well of the acetonitrile extraction plates were added to 90 μL of sterile, distilled H2O in 384-well, polypropylene, V-bottom plates for analysis of kynurenine and the internal standard on the RapidFire 300 (Agilent Technologies, Santa Clara, Calif.) and 4000 QTRAP MS (SCIEX, Framingham, Mass.). MS data were integrated using Agilent Technologies' RapidFire Integrator software, and data were normalized for analysis as a ratio of kynurenine to the internal standard. […]

T1 sequence (P14902 whole entry): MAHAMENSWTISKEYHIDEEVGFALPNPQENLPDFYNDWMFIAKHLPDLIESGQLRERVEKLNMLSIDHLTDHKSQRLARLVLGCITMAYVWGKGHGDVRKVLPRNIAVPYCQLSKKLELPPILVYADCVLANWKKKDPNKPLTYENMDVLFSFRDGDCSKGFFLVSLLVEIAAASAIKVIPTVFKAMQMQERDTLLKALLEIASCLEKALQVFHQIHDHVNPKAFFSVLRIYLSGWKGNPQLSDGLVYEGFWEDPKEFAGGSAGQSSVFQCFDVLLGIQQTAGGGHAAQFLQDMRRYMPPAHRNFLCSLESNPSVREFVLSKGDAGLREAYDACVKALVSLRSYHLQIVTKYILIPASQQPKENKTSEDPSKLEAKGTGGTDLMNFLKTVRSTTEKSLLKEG

Row | Structure (SMILES) | IC50 [nM]
1 | COc1ccc([C@H](CC2CCN(C(=O)OC(C)(C)C)CC2)NC(=O)c2ccc(Br)s2)cn1 [Example 29, tert-butyl (S)-4-(2-(5-bromothiophene-2-carboxamido)-2-(6-methoxypyridin-3-yl)ethyl)piperidine-1-carboxylate] | 1.58
2 | CCc1ccc(C(=O)N[C@@H](CC2CCN(C(=O)OC(C)(C)C)CC2)c2ccccc2)s1 [Example 30, tert-butyl (S)-4-(2-(5-ethylthiophene-2-carboxamido)-2-phenylethyl)piperidine-1-carboxylate] | 10
3 | CC(C)(C)OC(=O)N1CCC(CC(NC(=O)c2ccc(Br)s2)C2CCCCC2)CC1 (centres unmarked) [Example 31, tert-butyl 4-(2-(5-bromothiophene-2-carboxamido)-2-cyclohexylethyl)piperidine-1-carboxylate] | 7.94
4 | CC(C)OC(=O)N1CCC(C[C@H](NC(=O)c2ccc(Cl)cc2)c2ccccc2)CC1 [Example 32, isopropyl (S)-4-(2-(4-chlorobenzamido)-2-phenylethyl)piperidine-1-carboxylate] | 10
5 | CCc1ccc(C(=O)N[C@@H](CC2CCN(C(=O)OC(C)C)CC2)c2ccccc2)s1 [Example 33, isopropyl (S)-4-(2-(5-ethylthiophene-2-carboxamido)-2-phenylethyl)piperidine-1-carboxylate] | 7.94
6 | C=CC[C@H](CC1CCN(C(=O)OC(C)(C)C)CC1)NC(=O)c1ccc(Cl)s1 [Example 34, tert-butyl (R)-4-(2-(5-chlorothiophene-2-carboxamido)pent-4-en-1-yl)piperidine-1-carboxylate] | 3.98
7 | CC(C)CC(CC1CCN(C(=O)Oc2ccccc2)CC1)NC(=O)c1ccc(Cl)s1 (centres unmarked) [Example 35, phenyl 4-(2-(5-chlorothiophene-2-carboxamido)-4-methylpentyl)piperidine-1-carboxylate] | 6.31
8 | COc1ccc([C@H](CC2CCN(C(=O)Oc3ccccc3)CC2)NC(=O)c2ccc(Cl)s2)cn1 [Example 36, phenyl (S)-4-(2-(5-chlorothiophene-2-carboxamido)-2-(6-methoxypyridin-3-yl)ethyl)piperidine-1-carboxylate] | 1.58
9 | COc1ccc([C@H](CC2CCN(C(=O)Oc3ccccc3)CC2)NC(=O)c2ccc(Cl)cc2)cn1 [Example 37, phenyl (S)-4-(2-(4-chlorobenzamido)-2-(6-methoxypyridin-3-yl)ethyl)piperidine-1-carboxylate] | 2.51
10 | C[C@H](CC1CCN(C(=O)OC(C)(C)C)CC1)NC(=O)c1ccc(Cl)s1 [Example 38, tert-butyl (R)-4-(2-(5-chlorothiophene-2-carboxamido)propyl)piperidine-1-carboxylate] | 5.01
11 | COc1ccc([C@H](CC2CCN(C(=O)CC(C)(C)C)CC2)NC(=O)c2ccc(Cl)s2)cn1 [Example 39, (S)-5-chloro-N-(2-(1-(3,3-dimethylbutanoyl)piperidin-4-yl)-1-(6-methoxypyridin-3-yl)ethyl)thiophene-2-carboxamide] | 5.01
12 | COc1ccc([C@H](CC2CCN(C(=O)NC(C)(C)C)CC2)NC(=O)c2ccc(Cl)s2)cn1 [Example 40, (S)-N-(tert-butyl)-4-(2-(5-chlorothiophene-2-carboxamido)-2-(6-methoxypyridin-3-yl)ethyl)piperidine-1-carboxamide] | 3.98
13 | COc1ccc([C@H](CC2CCN(S(=O)(=O)CC(C)C)CC2)NC(=O)c2ccc(Cl)s2)cn1 [Example 41, (S)-5-chloro-N-(2-(1-(isobutylsulfonyl)piperidin-4-yl)-1-(6-methoxypyridin-3-yl)ethyl)thiophene-2-carboxamide] | 3.98
14 | C[C@H](CC1CCN(C(=O)Oc2ccccc2)CC1)NC(=O)c1ccc(Cl)s1 [Example 42, phenyl (R)-4-(2-(5-chlorothiophene-2-carboxamido)propyl)piperidine-1-carboxylate] | 5.01
